Patent publication US11642337B2, “Therapeutic agent for mental retardation or autism” (TOKYO METROPOLITAN INSTITUTE OF MEDICAL SCIENCE, priority 2017, dated 2023)

Experiments:
Type in all cases: in vivo, mouse
Tsc2^+/− mice = experiment: Contextual fear discrimination test in Tsc2+/- mice (memory impairment of tuberous sclerosis); conditions: 40 mg/kg orally, single administration six hours before FS, measured on the next day in the same box, vs vehicle group
Method: Tsc2^+/− mice were prepared by breeding/crossing according to a known method (Kobayashi, T., et al., Renal carcinogenesis, hepatic hemangiomatosis, and embryonic lethality caused by a germ-line Tsc2 mutation in mice. Cancer Res, 1999. 59(6): p. 1206-11).
A contextual fear discrimination test (Auerbach, B. D., E. K. Osterweil, and M. F. Bear, Mutations causing syndromic autism define an axis of synaptic pathophysiology. Nature, 2011. 480(7375): p. 63-8.) was carried out to measure the contextual fear memory of mice. More specifically, each mouse was placed in a cage for application of foot shock (FS), and FS was applied to the mouse. On the next day, the mouse was returned to the same cage (familiar condition), and the freeze time was measured (FIG. 1a). In order to investigate the effect of tipifarnib or lonafarnib (which may be hereinafter simply referred to as “active component”), a vehicle (carboxymethyl cellulose) and the active component were orally administered to mice, and FS was applied to each mouse 6 hours later. On the next day, the mouse was returned to the same cage to compare the freeze time. […]
Six hours before FS, lonafarnib (40 mg/kg) or tipifarnib (40 mg/kg) was orally administered to the Tsc2^+/− mice, and contextual fear memory was investigated (FIG. 1a). On the next day, the mice were returned to the box in which the FS was applied, and the freeze time was measured.

[1] = system: mice to which pentylenetetrazol was administered; experiment: Contextual fear discrimination test in pentylenetetrazol-treated mice (epilepsy-induced memory impairment); conditions: mice given pentylenetetrazol 10 times; single administration 40 mg/kg, i.p.
[2] = system: mice to which kainic acid was administered during the neonatal period; experiment: Three-chamber test in mice given kainic acid in the neonatal period (autism-like abnormality of social behavior); conditions: mice given kainic acid 1.5 mg/kg one week after birth, tested two months later; single administration 40 mg/kg, i.p.
[3] = system: GFAP-Cre; Tsc1^fl/fl (GFAP-Tsc1 cKO) mice; experiment: Three-chamber test in GFAP-Tsc1 cKO mice (abnormality of social behavior); conditions: single oral administration (40 mg/kg)
Method: By a three-chamber test, social interaction was investigated. This was carried out using an experiment device having three separated chambers between which a mouse can move freely. First, a cage containing a mouse (stranger 1 mouse) was placed in one chamber, and an empty cage was placed in another chamber (FIG. 2a). The subject mouse was placed in the middle chamber, and the length of time when the mouse stayed in each chamber (the chamber staying time in the figure, expressed in (s): seconds) was measured. Subsequently, the mouse (stranger 1 mouse) in the first cage was transferred to the empty cage, and another mouse (stranger 2 mouse) was placed in the cage that became empty (FIG. 2a). Thereafter, the length of time when the subject mouse stayed in the chamber of the first mouse (stranger 1 chamber) and the length of time when the subject mouse stayed in the chamber where the new mouse was staying (stranger 2 chamber) were measured and compared.
These mice were obtained by crossing of GFAP-Cre mice, which show astrocyte-specific Cre expression.
A suspension of 4 mg/ml lonafarnib or tipifarnib (using 1 w/v % CMC, 0.9 w/v % NaCl, and 5 v/v % DMSO as a vehicle) was prepared and orally administered at 40 mg/kg. A solution of 2 mg/ml pentylenetetrazol (PTZ) (using 0.9 w/v % NaCl as a vehicle) was prepared and intraperitoneally administered. […]

SMILES | freeze time (contextual fear memory) (Tsc2^+/− mice) | contextual fear memory (freeze time), pentylenetetrazol-induced memory impairment [1] | staying time in the chamber of the stranger 2 (time spent in chamber) [2] | staying time in the chamber of the stranger 2 [3]
NC(=O)N1CCC(CC(=O)N2CCC([C@H]3c4ncc(Br)cc4CCc4cc(Cl)cc(Br)c43)CC2)CC1 [lonafarnib] | increases in the freeze behavior | pentylenetetrazol-induced memory impairment could also be improved | significantly longer | significantly longer
Cn1cncc1[C@@](N)(c1ccc(Cl)cc1)c1ccc2c(c1)c(-c1cccc(Cl)c1)cc(=O)n2C [tipifarnib, 6-[(R)-amino(4-chlorophenyl)(1-methyl-1H-imidazol-5-yl)methyl]-4-(3-chlorophenyl)-1-methyl-2(1H)-quinolinone] | increases in the freeze behavior | – | – | –
